Data taken from patent US20150148551A1, “GENISTEIN FOR REDUCING LEVELS OF STORAGE COMPOUNDS IN THE TREATMENT AND/OR PREVENTION OF LYSOSOMAL STORAGE DISEASES (LSDS)” (3G THERAPEUTICS, INC., priority 2012, published 2015).

Legend:
Type in all cases: cell-based, human
ACP2 = assay: DNA microarray, ACP2 expression in fibroblasts exposed to genistein; details: for ACP2 fold change Average: 48 h vs DMSO
Protocol: (§1) The experiments were conducted to characterise the transcriptomic profile of human fibroblast cells exposed to genistein, and in particular to determine the expression of genes encoding lysosomal enzymes involved in metabolism (i.e. synthesis and degradation) of organic substances. The absence or deficiency of these enzymes' activity is responsible for occurrence of various lysosomal storage diseases (LSD) (including MPS). The tested hypothesis assumed that genistein influences the expression of many genes, among which there are genes coding for enzymes required in metabolism of compounds, which are pathologically stored in LSD. The results provide important information regarding genistein action on the molecular level within the range of gene expression modulation by this substance. The experiment was conducted in biological quintuplicates. Human dermal fibroblasts (HDFa) were exposed in vitro for 1, 24 or 48 hours to: 30, 60 or 100 μM of genistein; 0.05% DMSO (K1); or were untreated (control cells) (K2), and total RNA was isolated and analysed.
(§2) Fibroblast cells were grown in Dulbecco (DMEM) medium supplemented with 10% fetal bovine serum (FBS) with the addition of 1% antibiotics and anti-fungal agents at 37° C. in humidified atmosphere of 5% CO2, until the required confluency was obtained.
(§3) To determine the effect of tested compound on the transcriptom of the fibroblast cells, the growth medium was replaced with fresh medium, either non-supplemented (0.05% DMSO), or containing genistein (30, 60 or 100 μM, in 0.05% DMSO). The exposure was done for 1, 24 or 48 hours.
(§4) Total RNA was isolated from fibroblasts using High Pure RNA Isolation Kit according to the protocol and then it was quantitatively evaluated using Quant-It™ RiboGreen® Assay Kit.
(§5) Biotinylated cRNA was prepared using Ambion Total PrepAmp Kit for Illumina arrays.
(§6) Standard hybridization and quantitative image analysis procedures—Illumina hybridization protocol and Illumina scanning protocol, were used.
(§7) Processing of the results was done during data definition, including: background correction (using background subtraction method), normalization (using quantile normalization algorithm with Illumina GenomeStudio software package: gene expression module version 1.9.0) and summarization (using method, which sums the values of signal intensities from a set of probes).

TBP = assay: DNA microarray, TBP reference gene expression in fibroblasts exposed to genistein
Protocol: as §1, §2, §3, §4, §5, §6, §7

LGMN = assay: DNA microarray, LGMN expression in fibroblasts exposed to genistein; details: for LGMN fold change Average: 48 h vs DMSO
Protocol: as §1, §2, §3, §4, §5, §6, §7

## O=c1c(-c2ccc(O)cc2)coc2cc(O)cc(O)c12 [genistein, 4′,5,7-trihydroxy-3-phenylchromen-4-one]
ACP2; 30 μM, 1 h vs 0.05% DMSO
  ACP2 fold change Average 1h30/1hK1: 1.0116 fold change
ACP2; 30 μM
  ACP2 fold change Average: 1.0451 fold change
ACP2; 60 μM, 1 h vs 0.05% DMSO
  ACP2 fold change Average 1h60/1hK1: 0.95 fold change
ACP2; 60 μM
  ACP2 fold change Average: 1.063 fold change
ACP2; 100 μM, 1 h vs 0.05% DMSO
  ACP2 fold change Average 1h100/1hK1: 0.9804 fold change
ACP2; 100 μM
  ACP2 fold change Average: 1.147 fold change
TBP; 30 μM, 1 h vs 0.05% DMSO
  TBP fold change Average 1h30/1hK1: 0.974 fold change
TBP; 30 μM, 24 h vs 0.05% DMSO
  TBP fold change Average 24h30/24hK1: 0.8816 fold change
TBP; 30 μM, 48 h vs 0.05% DMSO
  TBP fold change Average 48h30/48hK1: 0.9265 fold change
TBP; 60 μM, 1 h vs 0.05% DMSO
  TBP fold change Average 1h60/1hK1: 0.9183 fold change
TBP; 60 μM, 24 h vs 0.05% DMSO
  TBP fold change Average 24h60/24hK1: 0.7892 fold change
TBP; 60 μM, 48 h vs 0.05% DMSO
  TBP fold change Average 48h60/48hK1: 0.9926 fold change
TBP; 100 μM, 1 h vs 0.05% DMSO
  TBP fold change Average 1h100/1hK1: 0.9531 fold change
TBP; 100 μM, 24 h vs 0.05% DMSO
  TBP fold change Average 24h100/24hK1: 0.8303 fold change
TBP; 100 μM, 48 h vs 0.05% DMSO
  TBP fold change Average 48h100/48hK1: 0.8862 fold change
LGMN; 30 μM, 1 h vs 0.05% DMSO
  LGMN fold change Average 1h30/1hK1: 0.9392 fold change
LGMN; 30 μM
  LGMN fold change Average: 1.3309 fold change
LGMN; 60 μM, 1 h vs 0.05% DMSO
  LGMN fold change Average 1h60/1hK1: 0.9963 fold change
LGMN; 60 μM
  LGMN fold change Average: 1.61 fold change
LGMN; 100 μM, 1 h vs 0.05% DMSO
  LGMN fold change Average 1h100/1hK1: 0.8978 fold change
LGMN; 100 μM
  LGMN fold change Average: 1.833 fold change
